Assays:
Assay in all cases: KINOMEscan competition binding
Conditions in all cases: compound 1.0 µM
[1] = biological target: CSNK1A1 (human) (UniProt P48729)
[2] = biological target: MTOR (human) (UniProt P42345)
[3] = biological target: EPHA6 (human) (UniProt Q9UF33)
[4] = biological target: ZAP70 (human) (UniProt P43403)
[5] = biological target: LYN (human) (UniProt P07948)
[6] = biological target: PDGFRA (human) (UniProt P16234)
[7] = biological target: MAP4K3 (human) (UniProt Q8IVH8)
[8] = biological target: PKN1 (human) (UniProt Q16512)
[9] = biological target: CDK13 (human) (UniProt Q14004)
[10] = biological target: HUNK (human) (UniProt P57058)
[11] = biological target: MAPK4 (human) (UniProt P31152)
[12] = biological target: TIE1 (human) (UniProt P35590)
[13] = biological target: TSSK1B (human) (UniProt Q9BXA7)
[14] = biological target: BTK (human) (UniProt Q06187)
[15] = biological target: CASK (human) (UniProt O14936)
[16] = biological target: KDR (human) (UniProt P35968)
[17] = biological target: EPHA8 (human) (UniProt P29322)
[18] = biological target: MAP3K9 (human) (UniProt P80192)
[19] = biological target: LIMK1 (human) (UniProt P53667)
[20] = biological target: PRKACB (human) (UniProt P22694)
[21] = biological target: EIF2AK2 (human) (UniProt P19525)
[22] = biological target: SLK (human) (UniProt Q9H2G2)
[23] = biological target: ROCK1 (human) (UniProt Q13464)
[24] = biological target: CRK2 (P.falciparum) (UniProt P61075)
[25] = biological target: MARK4 (human) (UniProt Q96L34)
[26] = biological target: MYLK2 (human) (UniProt Q9H1R3)
[27] = biological target: NTRK2 (human) (UniProt Q16620)
[28] = biological target: CSNK1G2 (human) (UniProt P78368)
[29] = biological target: CAMKK1 (human) (UniProt Q8N5S9)
[30] = biological target: RPS6KA3 KD2 (human) (UniProt P51812)
[31] = biological target: SBK1 (human) (UniProt Q52WX2)
[32] = biological target: EPHA2 (human) (UniProt P29317)
[33] = tested on: EGFR (human), P00533 [G719S]
[34] = biological target: CSNK1G1 (human) (UniProt Q9HCP0)
[35] = biological target: TEK (human) (UniProt Q02763)
[36] = biological target: MAP3K2 (human) (UniProt Q9Y2U5)
[37] = biological target: EPHB4 (human) (UniProt P54760)
[38] = biological target: DYRK1A (human) (UniProt Q13627)
[39] = biological target: OXSR1 (human) (UniProt O95747)
Chain of OXSR1 (human) (O95747 whole entry, looked up): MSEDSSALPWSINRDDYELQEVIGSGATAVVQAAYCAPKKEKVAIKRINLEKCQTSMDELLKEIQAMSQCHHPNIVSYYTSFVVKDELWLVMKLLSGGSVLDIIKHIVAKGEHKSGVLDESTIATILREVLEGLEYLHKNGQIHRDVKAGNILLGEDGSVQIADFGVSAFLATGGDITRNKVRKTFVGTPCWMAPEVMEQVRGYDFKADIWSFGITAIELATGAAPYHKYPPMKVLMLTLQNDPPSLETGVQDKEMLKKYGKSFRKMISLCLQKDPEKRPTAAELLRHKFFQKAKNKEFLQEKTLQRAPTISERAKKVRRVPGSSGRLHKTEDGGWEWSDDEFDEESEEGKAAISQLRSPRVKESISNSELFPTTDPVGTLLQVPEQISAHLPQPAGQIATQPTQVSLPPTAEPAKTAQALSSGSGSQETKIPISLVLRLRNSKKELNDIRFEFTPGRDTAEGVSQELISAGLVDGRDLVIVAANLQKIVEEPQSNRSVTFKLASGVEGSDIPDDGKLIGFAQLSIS

Chain of TEK (human) (Q02763 whole entry, looked up): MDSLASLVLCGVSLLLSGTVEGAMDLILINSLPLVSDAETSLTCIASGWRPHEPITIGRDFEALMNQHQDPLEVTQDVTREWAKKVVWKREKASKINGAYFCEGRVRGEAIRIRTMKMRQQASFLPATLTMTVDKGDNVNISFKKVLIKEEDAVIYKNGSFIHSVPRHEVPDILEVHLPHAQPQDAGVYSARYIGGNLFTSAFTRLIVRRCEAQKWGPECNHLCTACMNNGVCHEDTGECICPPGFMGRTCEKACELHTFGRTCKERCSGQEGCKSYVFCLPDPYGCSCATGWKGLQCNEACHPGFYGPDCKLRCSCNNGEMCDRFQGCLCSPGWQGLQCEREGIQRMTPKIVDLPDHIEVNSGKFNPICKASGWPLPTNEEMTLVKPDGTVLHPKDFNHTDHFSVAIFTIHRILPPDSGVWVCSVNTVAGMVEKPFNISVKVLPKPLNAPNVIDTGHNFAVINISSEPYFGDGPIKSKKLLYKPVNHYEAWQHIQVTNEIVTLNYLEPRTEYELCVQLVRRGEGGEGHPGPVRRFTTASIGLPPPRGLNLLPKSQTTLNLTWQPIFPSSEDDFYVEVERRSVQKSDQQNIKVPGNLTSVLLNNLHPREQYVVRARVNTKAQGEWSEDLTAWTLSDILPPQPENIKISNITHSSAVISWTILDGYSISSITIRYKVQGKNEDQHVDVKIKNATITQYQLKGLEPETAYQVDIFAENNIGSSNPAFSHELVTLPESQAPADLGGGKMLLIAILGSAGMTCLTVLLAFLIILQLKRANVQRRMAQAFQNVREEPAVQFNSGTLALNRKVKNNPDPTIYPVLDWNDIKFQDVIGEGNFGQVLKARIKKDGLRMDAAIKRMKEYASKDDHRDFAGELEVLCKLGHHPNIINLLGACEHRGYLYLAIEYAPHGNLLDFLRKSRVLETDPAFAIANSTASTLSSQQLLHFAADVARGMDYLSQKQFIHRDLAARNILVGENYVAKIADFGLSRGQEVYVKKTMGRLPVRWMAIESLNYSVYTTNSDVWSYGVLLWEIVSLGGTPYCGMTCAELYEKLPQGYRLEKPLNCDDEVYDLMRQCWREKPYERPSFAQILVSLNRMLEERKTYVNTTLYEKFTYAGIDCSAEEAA
Chain of LYN (human) (P07948 whole entry, looked up): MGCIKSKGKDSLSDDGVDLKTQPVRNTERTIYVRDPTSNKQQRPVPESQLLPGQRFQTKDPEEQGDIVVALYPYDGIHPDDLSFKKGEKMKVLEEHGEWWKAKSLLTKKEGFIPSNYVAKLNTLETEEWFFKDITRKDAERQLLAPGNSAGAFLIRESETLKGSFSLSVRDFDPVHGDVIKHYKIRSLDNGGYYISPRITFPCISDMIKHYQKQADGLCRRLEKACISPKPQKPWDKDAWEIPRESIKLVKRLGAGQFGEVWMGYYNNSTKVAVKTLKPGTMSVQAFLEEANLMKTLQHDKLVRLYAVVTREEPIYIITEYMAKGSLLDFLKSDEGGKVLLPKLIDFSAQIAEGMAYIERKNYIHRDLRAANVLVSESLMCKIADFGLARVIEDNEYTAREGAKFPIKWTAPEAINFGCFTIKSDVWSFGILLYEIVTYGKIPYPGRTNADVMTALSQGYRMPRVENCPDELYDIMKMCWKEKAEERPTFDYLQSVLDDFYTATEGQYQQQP
Chain of TIE1 (human) (P35590 whole entry, looked up): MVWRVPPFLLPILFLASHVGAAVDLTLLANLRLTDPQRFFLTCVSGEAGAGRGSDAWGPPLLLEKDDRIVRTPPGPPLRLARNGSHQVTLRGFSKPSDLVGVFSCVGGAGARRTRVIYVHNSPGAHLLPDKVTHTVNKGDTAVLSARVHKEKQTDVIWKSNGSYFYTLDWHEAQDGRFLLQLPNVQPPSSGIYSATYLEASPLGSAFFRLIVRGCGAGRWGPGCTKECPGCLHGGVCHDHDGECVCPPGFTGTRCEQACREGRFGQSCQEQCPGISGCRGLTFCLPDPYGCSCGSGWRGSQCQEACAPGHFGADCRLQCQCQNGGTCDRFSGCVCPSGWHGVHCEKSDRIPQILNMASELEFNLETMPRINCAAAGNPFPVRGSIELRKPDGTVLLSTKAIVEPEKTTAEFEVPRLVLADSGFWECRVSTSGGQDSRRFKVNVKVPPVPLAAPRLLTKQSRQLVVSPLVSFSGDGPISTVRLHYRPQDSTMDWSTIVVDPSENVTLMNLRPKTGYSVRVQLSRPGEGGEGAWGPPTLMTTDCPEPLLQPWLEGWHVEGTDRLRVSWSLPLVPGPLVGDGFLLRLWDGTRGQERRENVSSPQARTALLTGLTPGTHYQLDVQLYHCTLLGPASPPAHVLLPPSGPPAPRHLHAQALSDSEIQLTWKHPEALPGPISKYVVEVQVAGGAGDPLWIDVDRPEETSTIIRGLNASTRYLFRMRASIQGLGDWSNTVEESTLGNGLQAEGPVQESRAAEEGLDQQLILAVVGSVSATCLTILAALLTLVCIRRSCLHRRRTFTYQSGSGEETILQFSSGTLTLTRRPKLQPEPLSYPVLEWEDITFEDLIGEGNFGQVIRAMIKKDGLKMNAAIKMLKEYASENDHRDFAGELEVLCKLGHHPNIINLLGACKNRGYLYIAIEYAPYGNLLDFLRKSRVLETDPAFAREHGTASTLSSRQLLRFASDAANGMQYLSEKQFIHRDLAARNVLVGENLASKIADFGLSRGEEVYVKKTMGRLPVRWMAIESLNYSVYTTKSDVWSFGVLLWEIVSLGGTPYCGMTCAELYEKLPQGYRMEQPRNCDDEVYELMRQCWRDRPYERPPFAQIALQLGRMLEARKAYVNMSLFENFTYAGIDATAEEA
Chain of EPHB4 (human) (P54760 whole entry, looked up): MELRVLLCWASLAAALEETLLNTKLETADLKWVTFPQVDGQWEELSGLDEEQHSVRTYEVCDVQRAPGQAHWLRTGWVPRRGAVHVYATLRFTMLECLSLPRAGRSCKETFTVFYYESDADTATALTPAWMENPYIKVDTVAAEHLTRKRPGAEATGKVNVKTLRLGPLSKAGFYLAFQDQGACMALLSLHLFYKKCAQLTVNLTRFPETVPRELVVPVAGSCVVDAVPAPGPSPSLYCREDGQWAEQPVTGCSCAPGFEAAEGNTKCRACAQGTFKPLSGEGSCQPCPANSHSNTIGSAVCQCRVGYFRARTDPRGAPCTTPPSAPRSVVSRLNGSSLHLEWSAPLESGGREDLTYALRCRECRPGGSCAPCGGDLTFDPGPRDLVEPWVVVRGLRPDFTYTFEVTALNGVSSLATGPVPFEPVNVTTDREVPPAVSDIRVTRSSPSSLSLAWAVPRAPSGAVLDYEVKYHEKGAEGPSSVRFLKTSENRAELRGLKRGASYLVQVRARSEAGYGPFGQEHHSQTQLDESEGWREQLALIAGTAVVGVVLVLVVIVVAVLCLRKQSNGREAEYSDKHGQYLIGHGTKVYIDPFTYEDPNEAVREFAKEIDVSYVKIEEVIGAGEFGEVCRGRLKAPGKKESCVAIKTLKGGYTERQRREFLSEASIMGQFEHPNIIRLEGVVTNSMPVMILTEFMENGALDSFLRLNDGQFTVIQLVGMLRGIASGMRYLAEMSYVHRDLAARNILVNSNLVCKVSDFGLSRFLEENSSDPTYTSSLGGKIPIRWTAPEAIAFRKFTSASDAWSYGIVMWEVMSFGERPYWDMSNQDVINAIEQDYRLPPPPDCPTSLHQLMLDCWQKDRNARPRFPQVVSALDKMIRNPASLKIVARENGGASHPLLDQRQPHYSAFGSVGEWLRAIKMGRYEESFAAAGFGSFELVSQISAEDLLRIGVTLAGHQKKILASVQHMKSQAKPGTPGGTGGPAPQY
Chain of SBK1 (human) (Q52WX2 whole entry, looked up): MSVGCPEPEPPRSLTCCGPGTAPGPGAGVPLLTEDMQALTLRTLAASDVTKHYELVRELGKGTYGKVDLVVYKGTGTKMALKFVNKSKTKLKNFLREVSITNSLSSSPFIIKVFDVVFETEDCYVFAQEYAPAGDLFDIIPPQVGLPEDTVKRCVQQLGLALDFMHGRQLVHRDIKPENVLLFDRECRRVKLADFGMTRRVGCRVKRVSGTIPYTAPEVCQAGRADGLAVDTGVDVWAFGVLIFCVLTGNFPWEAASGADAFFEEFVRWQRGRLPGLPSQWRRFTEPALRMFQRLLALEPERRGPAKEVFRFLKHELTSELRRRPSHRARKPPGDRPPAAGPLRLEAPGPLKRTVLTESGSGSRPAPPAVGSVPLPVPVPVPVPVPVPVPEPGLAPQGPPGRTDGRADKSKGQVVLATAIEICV
Chain of CSNK1A1 (human) (P48729 whole entry, looked up): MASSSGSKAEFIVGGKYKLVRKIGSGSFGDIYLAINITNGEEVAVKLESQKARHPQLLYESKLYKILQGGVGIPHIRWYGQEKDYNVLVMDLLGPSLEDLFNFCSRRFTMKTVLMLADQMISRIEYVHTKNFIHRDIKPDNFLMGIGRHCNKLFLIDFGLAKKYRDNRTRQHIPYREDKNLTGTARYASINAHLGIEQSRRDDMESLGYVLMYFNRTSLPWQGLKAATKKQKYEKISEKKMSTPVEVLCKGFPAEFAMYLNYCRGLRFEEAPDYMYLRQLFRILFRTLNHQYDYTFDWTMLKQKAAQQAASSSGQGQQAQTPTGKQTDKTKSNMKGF

CNc1nc(Nc2ccc(C(=O)N3CCOCC3)cc2OC)ncc1Cl
95%: kinase still bound, per cent of control [30]
55%: kinase still bound, per cent of control [34]
92%: kinase still bound, per cent of control [4]
97%: kinase still bound, per cent of control [15]
87%: kinase still bound, per cent of control [6] | kinase still bound, per cent of control [16]
79%: kinase still bound, per cent of control [29]
89%: residual activity [9]
98%: kinase still bound, per cent of control [10]
93%: kinase still bound, per cent of control [27]
91%: kinase still bound, per cent of control [19]
45%: kinase still bound, per cent of control [25]
84%: residual activity [20]
100%: kinase still bound, per cent of control [1] | kinase still bound, per cent of control [2] | kinase still bound, per cent of control [3] | kinase still bound, per cent of control [5] | kinase still bound, per cent of control [7] | kinase still bound, per cent of control [8] | kinase still bound, per cent of control [11] | kinase still bound, per cent of control [12] | kinase still bound, per cent of control [13] | kinase still bound, per cent of control [14] | kinase still bound, per cent of control [17] | kinase still bound, per cent of control [18] | kinase still bound, per cent of control [21] | kinase still bound, per cent of control [22] | kinase still bound, per cent of control [23] | kinase still bound, per cent of control [24] | kinase still bound, per cent of control [26] | kinase still bound, per cent of control [28] | kinase still bound, per cent of control [31] | kinase still bound, per cent of control [32] | kinase still bound, per cent of control [33] | kinase still bound, per cent of control [35] | kinase still bound, per cent of control [36] | kinase still bound, per cent of control [37] | kinase still bound, per cent of control [38] | kinase still bound, per cent of control [39]

From the kinase profiling compilation of Christmann-Franck et al. (2016)
